From patent publication US20130131161A1, “METHODS AND COMPOSITIONS FOR CARDIOVASCULAR DISEASES AND CONDITIONS” (priority 2009, published 2013)

System: Human umbilical vein endothelial cells (HUVECs)
Assay: eNOS activity analysis: NO, ONOO− and NO/ONOO− release from HUVECs of 50 genotyped donors in response to LA-419 (Example 2)
Type: cell-based
Procedure: Concurrent measurements of NO and ONOO^− were carried out with tandem electrochemical nanosensors combined into one working unit with a total diameter of 200-500 nm (FIG. 1). Their design was based on previously developed and well-characterized chemically modified carbon-fiber technology (Malinski and Taha, 1992; Lvovich and Scheeline, 1997). Each of the nanosensors was made by depositing a sensing material on the tip of a carbon fiber (length 4-5 μm, diameter 0.2-0.5 μm). The fibers were sealed with nonconductive epoxy and electrically connected to copper wires with conductive silver epoxy. A conductive film of polymeric nickel (II) tetrakis(3-methoxy-4-hydroxyphenyl)porphyrin for the NO-sensor and polymeric film of Mn (III) [2.2]paracyclophanylporphyrin was used for the ONOO^−-sensor.
A module of NO/ONOO^− nanosensors (diameter 1-2 μm) with a platinum wire (0.1 mm) counter electrode and saturated calomel reference electrode (SCE) were applied. Differential pulse voltammetry (DPV) and amperometry were performed with a computer-based Gamry VFP600 multichannel potentiostat. DPV was used to measure the basal NO and ONOO^− concentrations, and amperometry was used to measure changes in NO and ONOO^− concentrations from its basal level with time. The DPV current at the peak potential characteristic for NO oxidation (0.65 V) and ONOO^− reduction (−0.45 V) was directly proportional to the local concentrations of these compounds in the immediate vicinity of the sensor. Linear calibration curves (current vs. concentration) were constructed for each sensor from 10 nM to 3 μM before and after measurements with aliquots of NO and ONOO^− standard solutions, respectively. The detection limit of the sensors was 1.0 nM.
The quantification of each analyte (concentration in nM) was performed using a maximum current from amperograms and standard calibration curves. A reproducibility of measurements with nanosensors is relatively high (between 5-12%). […] The sensors were slowly raised 5±2 μm from the surface of a single endothelial cell. The eNOS agonist, calcium ionophore A23187 (CaI) as well as the different drugs were then added to the surrounding media at the cell surface with a nanoinjector that was also positioned by a computer controlled-micromanipulator.
This example describes the genotype-specific response of the three major eNOS variants to 1 μM and 5 μM concentrations of LA-419. The three major genetic polymorphisms studied were the Glu298Asp variant (E298D or 894G→T) in exon 7 of […], the −786T→C variant in the promoter region, and the intron 4 polymorphism (VNTR). All of these variants have possible effects on the cardiovascular system and endothelial dysfunction. For this study, human umbilical vein endothelial cells (HUVECs) from 50 donors between 18 and 32 years of age were used.
For the analysis several analysis techniques were employed. First, the effect of genotype on NO and ONOO^− release was explored within the different concentrations of LA-419 (control, 1 μM, 5 μM), calculated as the average peak release (nmols/L) of NO, ONOO^−, and NO/ONOO^−. The effect of genotype on the net increase in NO, ONOO^−, and NO/ONOO^− for LA-419 (1 μM and 5 μM) as compared to control was also measured. In addition, an analysis was done on the effect of genotype on the % change in NO, ONOO^−, and NO/ONOO^− production for LA-419 (1 μM and 5 μM), calculated as:
% Change=[(avg. LA-419−avg. control)/(avg. control)]*100
Finally, an evaluation was undertaken concerning the effect of genotype on the production of NO, ONOO^−, and NO/ONOO^− as the fold difference of control for LA-419 (1 μM and 5 μM), calculated as:
Fold Difference=(avg. LA-419)/(avg. control)
Within each calculation technique the results were compared for statistical significance using a non-parametric ANOVA Kruskal-Wallace test or a non-parametric Mann-Whitney U test. Statistical significance was set at a p-value <0.05 in a two-tailed distribution. […]

[1] = (LA-419 5 μM)/(control), T-786C C/C, n=4
[2] = (LA-419 5 μM)/(control), T-786C T/C & C/C, n=27
[3] = (LA-419 5 μM)/(control), T-786C T/C, n=23
[4] = (LA-419 5 μM)/(control), T-786C T/T & T/C, n=45
[5] = (LA-419 5 μM)/(control), T-786C T/T, n=22
[6] = Caucasian, (LA-419 1 μM)/(control), Combination of all G894T + T-786C genotypes but G/G + T/T, n=19
[7] = Caucasian, (LA-419 1 μM)/(control), G894T + T-786C G/G + T/C, n=3
[8] = Caucasian, (LA-419 1 μM)/(control), G894T + T-786C G/G + T/T, n=7
[9] = Caucasian, (LA-419 1 μM)/(control), G894T + T-786C G/T + T/C, n=10
[10] = Caucasian, (LA-419 1 μM)/(control), G894T + T-786C G/T + T/T, n=3
[11] = Caucasian, (LA-419 1 μM)/(control), G894T + T-786C T/T + T/C, n=2
[12] = Caucasian, (LA-419 1 μM)/(control), G894T G/G, n=10
[13] = Caucasian, (LA-419 1 μM)/(control), G894T G/T & T/T, n=16
[14] = Caucasian, (LA-419 1 μM)/(control), G894T G/T, n=13
[15] = Caucasian, (LA-419 1 μM)/(control), G894T T/T, n=3
[16] = Caucasian, (LA-419 1 μM)/(control), Intron 4 b/a & a/a, n=6
[17] = Caucasian, (LA-419 1 μM)/(control), Intron 4 b/a, n=5
[18] = Caucasian, (LA-419 1 μM)/(control), Intron 4 b/b, n=18
[19] = Caucasian, (LA-419 1 μM)/(control), T-786C T/C & C/C, n=16
[20] = Caucasian, (LA-419 1 μM)/(control), T-786C T/C, n=15
[21] = Caucasian, (LA-419 1 μM)/(control), T-786C T/T, n=10
[22] = Caucasian, (LA-419 5 μM)/(control), Combination of all G894T + T-786C genotypes but G/G + T/T, n=19
[23] = Caucasian, (LA-419 5 μM)/(control), G894T + T-786C G/G + T/C, n=3
[24] = Caucasian, (LA-419 5 μM)/(control), G894T + T-786C G/G + T/T, n=7
[25] = Caucasian, (LA-419 5 μM)/(control), G894T + T-786C G/T + T/C, n=10
[26] = Caucasian, (LA-419 5 μM)/(control), G894T + T-786C G/T + T/T, n=3
[27] = Caucasian, (LA-419 5 μM)/(control), G894T + T-786C T/T + T/C, n=2

CC(=O)SC1COC2C(O[N+](=O)[O-])COC12 (stereo not drawn) [LA-419, S-(6-Nitro-oxi-hexahydro-furo[3,2-b]furan-3-1-il)thioacetate]
Fold difference NO (mean ± sd) [1]: 1.12 (0.06) | Fold difference NO/ONOO− (mean ± sd) [1]: 1.42 (0.13) | Fold difference ONOO− (mean ± sd) [1]: 0.79 (0.08) | Fold difference NO (mean ± sd) [2]: 1.13 (0.07) | Fold difference NO/ONOO− (mean ± sd) [2]: 1.39 (0.13) | Fold difference ONOO− (mean ± sd) [2]: 0.82 (0.06) | Fold difference NO (mean ± sd) [3]: 1.14 (0.07) | Fold difference NO/ONOO− (mean ± sd) [3]: 1.39 (0.14) | Fold difference ONOO− (mean ± sd) [3]: 0.82 (0.06) | Fold difference NO (mean ± sd) [4]: 1.15 (0.06) | Fold difference NO/ONOO− (mean ± sd) [4]: 1.44 (0.16) | Fold difference ONOO− (mean ± sd) [4]: 0.81 (0.07) | Fold difference NO (mean ± sd) [5]: 1.16 (0.06) | Fold difference NO/ONOO− (mean ± sd) [5]: 1.49 (0.18) | Fold difference ONOO− (mean ± sd) [5]: 0.79 (0.08) | Fold difference NO (mean ± sd) [6]: 1.20 (0.29) | Fold difference NO/ONOO− (mean ± sd) [6]: 1.61 (0.77) | Fold difference ONOO− (mean ± sd) [6]: 0.81 (0.16) | Fold difference NO (mean ± sd) [7]: 1.13 (0.03) | Fold difference NO/ONOO− (mean ± sd) [7]: 1.27 (0.04) | Fold difference ONOO− (mean ± sd) [7]: 0.89 (0.02) | Fold difference NO (mean ± sd) [8]: 1.25 (0.12) | Fold difference NO/ONOO− (mean ± sd) [8]: 1.63 (0.72) | Fold difference ONOO− (mean ± sd) [8]: 0.84 (0.22) | Fold difference NO (mean ± sd) [9]: 1.29 (0.37) | Fold difference NO/ONOO− (mean ± sd) [9]: 1.75 (0.91) | Fold difference ONOO− (mean ± sd) [9]: 0.81 (0.16) | Fold difference NO (mean ± sd) [10]: 1.08 (0.03) | Fold difference NO/ONOO− (mean ± sd) [10]: 1.21 (0.04) | Fold difference ONOO− (mean ± sd) [10]: 0.90 (0.06) | Fold difference NO (mean ± sd) [11]: 1.11 (0.36) | Fold difference NO/ONOO− (mean ± sd) [11]: 2.25 (1.17) | Fold difference ONOO− (mean ± sd) [11]: 0.52 (0.11) | Fold difference NO (mean ± sd) [12]: 1.21 (0.12) | Fold difference NO/ONOO− (mean ± sd) [12]: 1.52 (0.61) | Fold difference ONOO− (mean ± sd) [12]: 0.86 (0.18) | Fold difference NO (mean ± sd) [13]: 1.21 (0.32) | Fold difference NO/ONOO− (mean ± sd) [13]: 1.68 (0.83) | Fold difference ONOO− (mean ± sd) [13]: 0.79 (0.17) | Fold difference NO (mean ± sd) [14]: 1.24 (0.33) | Fold difference NO/ONOO− (mean ± sd) [14]: 1.63 (0.82) | Fold difference ONOO− (mean ± sd) [14]: 0.83 (0.15) | Fold difference NO (mean ± sd) [15]: 1.08 (0.26) | Fold difference NO/ONOO− (mean ± sd) [15]: 1.90 (1.02) | Fold difference ONOO− (mean ± sd) [15]: 0.63 (0.19) | Fold difference NO (mean ± sd) [16]: 1.25 (0.33) | Fold difference NO/ONOO− (mean ± sd) [16]: 1.52 (0.70) | Fold difference ONOO− (mean ± sd) [16]: 0.86 (0.10) | Fold difference NO (mean ± sd) [17]: 1.28 (0.35) | Fold difference NO/ONOO− (mean ± sd) [17]: 1.58 (0.77) | Fold difference ONOO− (mean ± sd) [17]: 0.85 (0.12) | Fold difference NO (mean ± sd) [18]: 1.21 (0.25) | Fold difference NO/ONOO− (mean ± sd) [18]: 1.69 (0.80) | Fold difference ONOO− (mean ± sd) [18]: 0.79 (0.20) | Fold difference NO (mean ± sd) [19]: 1.22 (0.31) | Fold difference NO/ONOO− (mean ± sd) [19]: 1.69 (0.82) | Fold difference ONOO− (mean ± sd) [19]: 0.79 (0.17) | Fold difference NO (mean ± sd) [20]: 1.24 (0.32) | Fold difference NO/ONOO− (mean ± sd) [20]: 1.72 (0.84) | Fold difference ONOO− (mean ± sd) [20]: 0.79 (0.17) | Fold difference NO (mean ± sd) [21]: 1.20 (0.13) | Fold difference NO/ONOO− (mean ± sd) [21]: 1.50 (0.62) | Fold difference ONOO− (mean ± sd) [21]: 0.86 (0.18) | Fold difference NO (mean ± sd) [22]: 1.13 (0.06) | Fold difference NO/ONOO− (mean ± sd) [22]: 1.37 (0.10) | Fold difference ONOO− (mean ± sd) [22]: 0.83 (0.06) | Fold difference NO (mean ± sd) [23]: 1.19 (0.02) | Fold difference NO/ONOO− (mean ± sd) [23]: 1.47 (0.08) | Fold difference ONOO− (mean ± sd) [23]: 0.81 (0.03) | Fold difference NO (mean ± sd) [24]: 1.19 (0.08) | Fold difference NO/ONOO− (mean ± sd) [24]: 1.47 (0.14) | Fold difference ONOO− (mean ± sd) [24]: 0.81 (0.04) | Fold difference NO (mean ± sd) [25]: 1.11 (0.05) | Fold difference NO/ONOO− (mean ± sd) [25]: 1.33 (0.06) | Fold difference ONOO− (mean ± sd) [25]: 0.84 (0.04) | Fold difference NO (mean ± sd) [26]: 1.14 (0.06) | Fold difference NO/ONOO− (mean ± sd) [26]: 1.39 (0.14) | Fold difference ONOO− (mean ± sd) [26]: 0.83 (0.11) | Fold difference NO (mean ± sd) [27]: 1.12 (0.09) | Fold difference NO/ONOO− (mean ± sd) [27]: 1.29 (0.01) | Fold difference ONOO− (mean ± sd) [27]: 0.87 (0.06) | Fold difference NO (mean ± sd) (Caucasian, (LA-419 5 μM)/(control), G894T G/G, n=10): 1.19 (0.07)
